Experimental data published in publication PMC7531004, “Discovery of gramicidin A analogues with altered activities by multidimensional screening of a one-bead-one-compound library” (Nature Communications, 2020).
Where a SMILES comes first, the peptide text is derived from it. [ ]: non-standard residue; d: D form. The star is where a group is joined. NHCH2CH2OH = OCCN*; For = O=C*

How the values were obtained:
[1] = test system: Streptococcus pyogenes SSI-9; assay: Antibacterial activity assay of bead-derived peptides (three concentrations); format: cell-based; parameters: key: +++: inhibition by the 640-fold diluted peptide solution; ++: inhibition by the 160-fold diluted solution; +: inhibition by the 40-fold diluted solution; -: no inhibition; conditions: S. pyogenes, bead-derived peptide solution, three concentrations
How it was run: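 Library peptide stock applied undiluted, 4-fold and 16-fold diluted in DMSO to S. pyogenes SSI-9 (2 × 10^5 CFU) in cation-adjusted Mueller Hinton broth with 5% laked horse blood. After 18 h at 37 °C, growth judged by visible cell precipitation.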

[2] = H+/Na+ transport assay of bead-derived peptides (one-point); format: biochemical; parameters: key: relative activity; mean of two control wells = 1.00; conditions: bead-derived peptide solution, EYPC/EYPG LUVs;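 further: relative to parent gramicidin A activity set to 1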
How it was run: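 Values are normalized fluorescence, with Triton X-100 defining 100% and untreated LUVs 0%, and the two control wells averaging 1.00. Vesicles carried 1.0 mM pyranine and included egg yolk phosphatidylglycerol. Peptides were incubated with them 30 min at room temperature.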

[3] = cell viability/%
How it was run: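 P388 cells at 1 × 10^4 cells/mL (final) were exposed to library peptides (stocks diluted 250-fold in RPMI1640/10% FBS) for 92 h at 37 °C, 5% CO2. Viable cells were counted by WST-1/1-methoxy PMS (4 h), absorbance 415 nm, and expressed as cell viability (%).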

SMILES: CC(C)C[C@@H](NC(=O)[C@H](Cc1c[nH]c2ccccc12)NC(=O)[C@H](NC(=O)[C@H](Cc1c[nH]c2ccccc12)NC(=O)[C@@H](CC(C)C)NC(=O)[C@H](Cc1c[nH]c2ccccc12)NC(=O)[C@H](NC(=O)[C@@H](NC(=O)[C@H](NC(=O)[C@H](C)NC(=O)[C@H](NC(=O)[C@H](C)NC(=O)CNC(=O)[C@@H](NC=O)C(C)C)C(C)C)C(C)C)C(C)C)C(C)C)[C@H](C)O)C(=O)N[C@@H](Cc1c[nH]c2ccccc12)C(=O)NCCO [compound 521] (For-VGA[dV]A[dV]V[dV]W[dL]W[dT]W[dL]W-NHCH2CH2OH)
- antibacterial activity [1]: +
- H+/Na+ transport activity normalized against the value of 1 (1.00) [2]: 1.05
- viability [3]: 100%

SMILES: CNC(=O)C[C@@H](NC(=O)[C@H](Cc1c[nH]c2ccccc12)NC(=O)[C@H](NC(=O)[C@H](Cc1c[nH]c2ccccc12)NC(=O)[C@H](NC(=O)[C@H](Cc1c[nH]c2ccccc12)NC(=O)[C@H](NC(=O)[C@@H](NC(=O)[C@@H](CC(C)C)NC(=O)[C@H](C)NC(=O)[C@@H](CC(C)C)NC(=O)[C@H](C)NC(=O)CNC(=O)[C@@H](NC=O)C(C)C)C(C)C)C(C)C)C(C)C)C(C)C)C(=O)N[C@@H](Cc1c[nH]c2ccccc12)C(=O)NCCO [compound 10002] (For-VGA[dL]A[dL]V[dV]W[dV]W[dV]W[dD](NHMe)W-NHCH2CH2OH)
- antibacterial activity [1]: -
- H+/Na+ transport activity normalized against the value of 1 (1.00) [2]: 1.01
- viability [3]: 100%

SMILES: CC(C)C[C@@H](NC(=O)[C@H](C)NC(=O)[C@H](NC(=O)[C@H](C)NC(=O)CNC(=O)[C@@H](NC=O)C(C)C)C(C)C)C(=O)N[C@H](C(=O)N[C@H](CC(C)C)C(=O)N[C@@H](Cc1c[nH]c2ccccc12)C(=O)N[C@@H](C(=O)N[C@@H](Cc1c[nH]c2ccccc12)C(=O)N[C@H](CC(C)C)C(=O)N[C@@H](Cc1c[nH]c2ccccc12)C(=O)N[C@@H](C(=O)N[C@@H](Cc1c[nH]c2ccccc12)C(=O)NCCO)[C@H](C)O)C(C)C)C(C)C [compound 2895] (For-VGA[dV]A[dL]V[dL]W[dV]W[dL]W[dT]W-NHCH2CH2OH)
- antibacterial activity [1]: -
- H+/Na+ transport activity normalized against the value of 1 (1.00) [2]: 1.06
- viability [3]: 95.1%

SMILES: CNC(=O)C[C@@H](NC(=O)[C@@H](NC(=O)[C@H](NC(=O)[C@H](C)NC(=O)[C@@H](CC(C)C)NC(=O)[C@H](C)NC(=O)CNC(=O)[C@@H](NC=O)C(C)C)C(C)C)C(C)C)C(=O)N[C@@H](Cc1c[nH]c2ccccc12)C(=O)N[C@H](CC(C)C)C(=O)N[C@@H](Cc1c[nH]c2ccccc12)C(=O)N[C@@H](C(=O)N[C@@H](Cc1c[nH]c2ccccc12)C(=O)N[C@@H](C(=O)N[C@@H](Cc1c[nH]c2ccccc12)C(=O)NCCO)C(C)C)C(C)C [compound 2195] (For-VGA[dL]A[dV]V[dD](NHMe)W[dL]W[dV]W[dV]W-NHCH2CH2OH)
- antibacterial activity [1]: -
- H+/Na+ transport activity normalized against the value of 1 (1.00) [2]: 1.34
- viability [3]: 100%

SMILES: CNC(=O)C[C@@H](NC(=O)[C@H](Cc1c[nH]c2ccccc12)NC(=O)[C@@H](CC(C)C)NC(=O)[C@H](Cc1c[nH]c2ccccc12)NC(=O)[C@H](NC(=O)[C@H](Cc1c[nH]c2ccccc12)NC(=O)[C@@H](CC(C)C)NC(=O)[C@@H](NC(=O)[C@@H](CC(C)C)NC(=O)[C@H](C)NC(=O)[C@@H](CC(C)C)NC(=O)[C@H](C)NC(=O)CNC(=O)[C@@H](NC=O)C(C)C)C(C)C)[C@H](C)O)C(=O)N[C@@H](Cc1c[nH]c2ccccc12)C(=O)NCCO [compound 13033] (For-VGA[dL]A[dL]V[dL]W[dT]W[dL]W[dD](NHMe)W-NHCH2CH2OH)
- antibacterial activity [1]: -
- H+/Na+ transport activity normalized against the value of 1 (1.00) [2]: 1.01
- viability [3]: 100%

SMILES: CC(C)C[C@@H](NC(=O)[C@H](C)NC(=O)[C@H](NC(=O)[C@H](C)NC(=O)CNC(=O)[C@@H](NC=O)C(C)C)[C@H](C)O)C(=O)N[C@H](C(=O)N[C@H](CC(C)C)C(=O)N[C@@H](Cc1c[nH]c2ccccc12)C(=O)N[C@@H](C(=O)N[C@@H](Cc1c[nH]c2ccccc12)C(=O)N[C@@H](C(=O)N[C@@H](Cc1c[nH]c2ccccc12)C(=O)N[C@@H](C(=O)N[C@@H](Cc1c[nH]c2ccccc12)C(=O)NCCO)C(C)C)C(C)C)[C@H](C)O)C(C)C [compound 2139] (For-VGA[dT]A[dL]V[dL]W[dT]W[dV]W[dV]W-NHCH2CH2OH)
- antibacterial activity [1]: -
- H+/Na+ transport activity normalized against the value of 1 (1.00) [2]: 1.05
- viability [3]: 100%

SMILES: CC(C)C[C@@H](NC(=O)[C@H](C)NC(=O)CNC(=O)[C@@H](NC=O)C(C)C)C(=O)N[C@@H](C)C(=O)N[C@@H](C(=O)N[C@H](C(=O)N[C@@H](C(=O)N[C@@H](Cc1c[nH]c2ccccc12)C(=O)N[C@H](CC(C)C)C(=O)N[C@@H](Cc1c[nH]c2ccccc12)C(=O)N[C@@H](C(=O)N[C@@H](Cc1c[nH]c2ccccc12)C(=O)N[C@@H](C(=O)N[C@@H](Cc1c[nH]c2ccccc12)C(=O)NCCO)C(C)C)C(C)C)C(C)C)C(C)C)[C@H](C)O [compound 6549] (For-VGA[dL]A[dT]V[dV]W[dL]W[dV]W[dV]W-NHCH2CH2OH)
- antibacterial activity [1]: -
- H+/Na+ transport activity normalized against the value of 1 (1.00) [2]: 1.07
- viability [3]: 100%

SMILES: CC(C)C[C@@H](NC(=O)[C@H](C)NC(=O)[C@H](NC(=O)[C@H](C)NC(=O)CNC(=O)[C@@H](NC=O)C(C)C)C(C)C)C(=O)N[C@H](C(=O)N[C@H](CC(C)C)C(=O)N[C@@H](Cc1c[nH]c2ccccc12)C(=O)N[C@@H](C(=O)N[C@@H](Cc1c[nH]c2ccccc12)C(=O)N[C@H](CC(C)C)C(=O)N[C@@H](Cc1c[nH]c2ccccc12)C(=O)N[C@H](CC(C)C)C(=O)N[C@@H](Cc1c[nH]c2ccccc12)C(=O)NCCO)[C@H](C)O)C(C)C [compound 11400] (For-VGA[dV]A[dL]V[dL]W[dT]W[dL]W[dL]W-NHCH2CH2OH)
- antibacterial activity [1]: +
- H+/Na+ transport activity normalized against the value of 1 (1.00) [2]: 1.03
- viability [3]: 53%

SMILES: CC(C)C[C@@H](NC(=O)[C@H](C)NC(=O)CNC(=O)[C@@H](NC=O)C(C)C)C(=O)N[C@@H](C)C(=O)N[C@H](CC(C)C)C(=O)N[C@H](C(=O)N[C@@H](C(=O)N[C@@H](Cc1c[nH]c2ccccc12)C(=O)N[C@H](CC(C)C)C(=O)N[C@@H](Cc1c[nH]c2ccccc12)C(=O)N[C@@H](C(=O)N[C@@H](Cc1c[nH]c2ccccc12)C(=O)N[C@@H](C(=O)N[C@@H](Cc1c[nH]c2ccccc12)C(=O)NCCO)C(C)C)C(C)C)C(C)C)C(C)C [compound 2557] (For-VGA[dL]A[dL]V[dV]W[dL]W[dV]W[dV]W-NHCH2CH2OH)
- antibacterial activity [1]: ++
- H+/Na+ transport activity normalized against the value of 1 (1.00) [2]: 1.21
- viability [3]: 31%

SMILES: CC(C)C[C@@H](NC(=O)[C@H](C)NC(=O)CNC(=O)[C@@H](NC=O)C(C)C)C(=O)N[C@@H](C)C(=O)N[C@@H](C(=O)N[C@H](C(=O)N[C@H](CC(C)C)C(=O)N[C@@H](Cc1c[nH]c2ccccc12)C(=O)N[C@H](CC(C)C)C(=O)N[C@@H](Cc1c[nH]c2ccccc12)C(=O)N[C@@H](C(=O)N[C@@H](Cc1c[nH]c2ccccc12)C(=O)N[C@H](CC(C)C)C(=O)N[C@@H](Cc1c[nH]c2ccccc12)C(=O)NCCO)C(C)C)C(C)C)[C@H](C)O [compound 3247] (For-VGA[dL]A[dT]V[dL]W[dL]W[dV]W[dL]W-NHCH2CH2OH)
- antibacterial activity [1]: -
- H+/Na+ transport activity normalized against the value of 1 (1.00) [2]: 1.24
- viability [3]: 99.5%

SMILES: CC(C)C[C@@H](NC(=O)[C@H](C)NC(=O)[C@H](NC(=O)[C@H](C)NC(=O)CNC(=O)[C@@H](NC=O)C(C)C)[C@H](C)O)C(=O)N[C@H](C(=O)N[C@@H](C(=O)N[C@@H](Cc1c[nH]c2ccccc12)C(=O)N[C@H](CC(C)C)C(=O)N[C@@H](Cc1c[nH]c2ccccc12)C(=O)N[C@H](CC(C)C)C(=O)N[C@@H](Cc1c[nH]c2ccccc12)C(=O)N[C@@H](C(=O)N[C@@H](Cc1c[nH]c2ccccc12)C(=O)NCCO)C(C)C)C(C)C)C(C)C [compound 4605] (For-VGA[dT]A[dL]V[dV]W[dL]W[dL]W[dV]W-NHCH2CH2OH)
- antibacterial activity [1]: -
- H+/Na+ transport activity normalized against the value of 1 (1.00) [2]: 1.35
- viability [3]: 100%

SMILES: CC(C)C[C@@H](NC(=O)[C@H](C)NC(=O)CNC(=O)[C@@H](NC=O)C(C)C)C(=O)N[C@@H](C)C(=O)N[C@@H](C(=O)N[C@H](C(=O)N[C@H](CC(C)C)C(=O)N[C@@H](Cc1c[nH]c2ccccc12)C(=O)N[C@H](CC(C)C)C(=O)N[C@@H](Cc1c[nH]c2ccccc12)C(=O)N[C@@H](C(=O)N[C@@H](Cc1c[nH]c2ccccc12)C(=O)N[C@@H](C(=O)N[C@@H](Cc1c[nH]c2ccccc12)C(=O)NCCO)C(C)C)[C@H](C)O)C(C)C)[C@H](C)O [compound 381] (For-VGA[dL]A[dT]V[dL]W[dL]W[dT]W[dV]W-NHCH2CH2OH)
- antibacterial activity [1]: -
- H+/Na+ transport activity normalized against the value of 1 (1.00) [2]: 1.03
- viability [3]: 100%

SMILES: CC(C)C[C@@H](NC(=O)[C@H](C)NC(=O)CNC(=O)[C@@H](NC=O)C(C)C)C(=O)N[C@@H](C)C(=O)N[C@H](CC(C)C)C(=O)N[C@H](C(=O)N[C@@H](C(=O)N[C@@H](Cc1c[nH]c2ccccc12)C(=O)N[C@@H](C(=O)N[C@@H](Cc1c[nH]c2ccccc12)C(=O)N[C@@H](C(=O)N[C@@H](Cc1c[nH]c2ccccc12)C(=O)N[C@H](CC(C)C)C(=O)N[C@@H](Cc1c[nH]c2ccccc12)C(=O)NCCO)C(C)C)[C@H](C)O)[C@H](C)O)C(C)C [compound 3782] (For-VGA[dL]A[dL]V[dT]W[dT]W[dV]W[dL]W-NHCH2CH2OH)
- antibacterial activity [1]: -
- H+/Na+ transport activity normalized against the value of 1 (1.00) [2]: 1.12
- viability [3]: 100%
